Results from patent US20230274811A1, “METHODS OF MAKING PROSTATE CANCER TREATMENT DECISIONS” (Progenics Pharmaceuticals, Inc., priority 2020, published 2023).
Read-outs that look alike come from different tables or passages of the source.

System: primary tumor in the gland
Test: OSPREY Cohort A: 18F-DCFPyL PET/CT detection of primary tumor in the prostate gland vs surgical pathology
Format: in vivo, men
Text: Sensitivity, specificity, PPV and NPV of ^18F-DCFPyL PET/CT for detecting primary tumor in the gland and pelvic lymph node metastases were compared to conventional imaging (CI), either CT or MRI. Three central, blinded, and independent readers evaluated the ^18F-DCFPyL scans and one blinded central reader interpreted the CI. Imaging results were compared to surgical pathology as the truth standard.

In the case of `O=C(O)CC[C@H](NC(=O)N[C@@H](CCCCNC(=O)c1ccc([18F])nc1)C(=O)O)C(=O)O` [18F-DCFPyL, 2-(3-{1-carboxy-5-[(6-[^18F]fluoro-pyridine-3-carbonyl)-amino]-pentyl}ureido)-pentanedioic acid], the “PPV, median of 3 readers” value was 100% (0.98, 1.0), the “Sensitivity, median of 3 readers” value was 98.0% (0.96, 1.0) and the “Sensitivity, median of 3 readers” value (listed as PyL) was 98%.
